Values after ≈ are worked out from the molar mass of the structure shown.
Tests used:
Test in all cases: ≥ marks a high value that may be exact or a test limit, other limits are often not marked, values filed in µg/mL are converted to µM
[1] = test system: Pseudomonas aeruginosa ATCC 27853
[2] = test system: Staphylococcus epidermidis ATCC 12228
Escherichia coli K88 = test system: Escherichia coli K88
Escherichia coli 078 = test system: Escherichia coli 078
[3] = test system: Salmonella enterica subsp. enterica serovar Typhimurium C77-31
[4] = test system: Staphylococcus aureus ATCC 43300
[5] = test system: Candida parapsilosis CGMCC 2.3989
Escherichia coli UB1005 = test system: Escherichia coli UB1005
Escherichia coli K99 = test system: Escherichia coli K99
[6] = test system: Salmonella enterica subsp. enterica serovar Typhimurium ATCC 14028
[7] = test system: Candida tropicalis CGMCC 2.1975
[8] = test system: Salmonella enterica subsp. enterica serovar Pullorum ATCC 7913
[9] = test system: Staphylococcus aureus ATCC 25923
[10] = test system: Listeria monocytogenes KCTC 3710
[11] = test system: Trichosporon beigelii KCTC 7707
[12] = test system: Staphylococcus aureus CCARM 3090
[13] = test system: Candida albicans KCTC 7270
[14] = test system: Escherichia coli CCARM 1238
[15] = test system: Pseudomonas aeruginosa 4007
[16] = test system: Staphylococcus aureus CCARM 3518
[17] = test system: Escherichia coli ATCC 25922
[18] = test system: Salmonella typhimurium KCTC 1926
[19] = test system: Bacillus subtilis KCTC 1998
[20] = test system: Pseudomonas aeruginosa 4891
[21] = test system: Escherichia coli CCARM 1229
[22] = test system: Klebsiella pneumoniae ATCC 43816
[23] = test system: Staphylococcus aureus NCTC 12493
[24] = test system: Escherichia coli NCTC 10418
[25] = test system: Candida albicans NCYC 1467
[26] = test system: Enterococcus faecalis NCTC 12697
[27] = test system: Staphylococcus aureus NCTC 10788
[28] = test system: Acinetobacter baumannii KCTC 2508
[29] = test system: Klebsiella pneumoniae KCTC 2208
Streptococcus agalactiae = test system: Streptococcus agalactiae
[30] = test system: Enterococcus faecalis ATCC 29212
Staphylococcus aureus = test system: Staphylococcus aureus
[31] = test system: Salmonella enterica subsp. enterica serovar Pullorum C79-13
[32] = test system: Salmonella enterica subsp. enterica serovar Choleraesuis CVCC 503
[33] = test system: Staphylococcus aureus ATCC 29213

For CC[C@H](C)[C@H](NC(=O)[C@H](CCCN=C(N)N)NC(=O)[C@H](C)NC(=O)[C@H](C)N)C(=O)N[C@H](C(=O)N[C@@H](CC(C)C)C(=O)N[C@@H](CCCN=C(N)N)C(=O)N[C@@H](Cc1c[nH]c2ccccc12)C(=O)N[C@@H](CCCN=C(N)N)C(=O)N[C@@H](Cc1ccccc1)C(=O)N[C@@H](CCCN=C(N)N)C(N)=O)[C@@H](C)CC [AARIILRWRFR], the MIC [1] was 4 µM (≈ 5.83 µg/mL), the MIC [2] was 1 µM (≈ 1.46 µg/mL) and the MIC (Escherichia coli K88) was 2 µM (≈ 2.91 µg/mL). For the same compound, the MIC (Escherichia coli 078) was 2 µM (≈ 2.91 µg/mL), the MIC [3] was 4 µM (≈ 5.83 µg/mL) and the MIC [4] was 1 µM (≈ 1.46 µg/mL). For the same compound, the MIC [5] was 4 µM (≈ 5.83 µg/mL), the MIC (Escherichia coli UB1005) was 4 µM (≈ 5.83 µg/mL) and the MIC (Escherichia coli K99) was 2 µM (≈ 2.91 µg/mL). The MIC [6] was 2 µM (≈ 2.91 µg/mL), the MIC [7] was 4 µM (≈ 5.83 µg/mL) and the MIC [8] was 2 µM (≈ 2.91 µg/mL). The MIC [9] was 2 µM (≈ 2.91 µg/mL).

Compound CC[C@H](C)[C@H](NC(=O)CNC(=O)[C@H](CCC(N)=O)NC(=O)[C@H](CO)NC(=O)[C@@H](NC(=O)[C@H](CCCCN)NC(=O)[C@H](CCCCN)NC(=O)[C@H](CC(C)C)NC(=O)[C@H](C)NC(=O)[C@H](CC(N)=O)NC(=O)[C@H](CC(C)C)NC(=O)[C@H](C)N)C(C)C)C(=O)N[C@@H](Cc1cnc[nH]1)C(=O)N[C@@H](CCC(=O)O)C(=O)N[C@@H](C)C(=O)N[C@H](C(=O)N[C@@H](CCCCN)C(=O)N[C@@H](CC(C)C)C(=O)N[C@H](C(=O)N[C@@H](C)C(=O)N[C@@H](CC(N)=O)C(=O)N[C@@H](Cc1cnc[nH]1)C(=O)N[C@H](C(=O)N[C@@H](CCC(N)=O)C(N)=O)C(C)C)[C@@H](C)CC)[C@@H](C)CC [ALNALKKVSQGIHEAIKLIANHVQ] has an MIC [10] of 16 µM (≈ 41.5 µg/mL), an MIC [11] of at least 32 µM and an MIC [12] of at least 32 µM. The MIC [1] was 8 µM (≈ 20.8 µg/mL), the MIC [13] was at least 32 µM and the MIC [14] was 16 µM (≈ 41.5 µg/mL). For the same compound, the MIC [15] was at least 32 µM, the MIC [16] was at least 32 µM and the MIC [17] was 8 µM (≈ 20.8 µg/mL). For the same compound, the MIC [18] was 8 µM (≈ 20.8 µg/mL), the MIC [19] was 16 µM (≈ 41.5 µg/mL) and the MIC [20] was at least 32 µM. The MIC [9] was 16 µM (≈ 41.5 µg/mL) and the MIC [21] was 16 µM (≈ 41.5 µg/mL).

Work on CC(C)C[C@H](NC(=O)[C@H](C)N)C(=O)N[C@@H](Cc1c[nH]c2ccccc12)C(=O)N[C@@H](CCCCN)C(=O)N[C@@H](CO)C(=O)N[C@@H](CC(C)C)C(=O)N[C@@H](CC(C)C)C(=O)N[C@@H](CCCCN)C(=O)N[C@@H](CC(N)=O)C(=O)N[C@H](C(=O)NCC(=O)N[C@@H](CCCCN)C(=O)N[C@@H](C)C(N)=O)C(C)C [ALWKSLLKNVGKA] yielded an MIC [22] of at least 128 µM, an MIC [1] of 128 µM (≈ 183 µg/mL) and an MIC [23] of at least 128 µM. It also gave an MIC [24] of at least 64 µM, an MIC [25] of at least 32 µM and an MIC [26] of at least 256 µM. The MIC [27] was at least 64 µM.

CC[C@H](C)[C@H](N)C(=O)N[C@@H](C)C(=O)N[C@@H](CCCN=C(N)N)C(=O)N[C@@H](CCCN=C(N)N)C(=O)N[C@@H](C)C(=O)N[C@@H](CC(C)C)C(=O)N[C@@H](CCCCN)C(=O)N[C@@H](CCCCN)C(=O)N[C@@H](C)C(=O)N[C@@H](CCCCN)C(=O)N[C@@H](CCCN=C(N)N)C(=O)N[C@@H](C)C(=O)N[C@@H](C)C(=O)N[C@@H](Cc1cnc[nH]1)C(=O)N[C@@H](CCCCN)C(=O)N[C@H](C(=O)N1CCC[C@H]1C(=O)N[C@@H](C)C(=O)N[C@@H](C)C(=O)N[C@@H](CCCCN)C(=O)N[C@@H](CCCCN)C(=O)N[C@@H](Cc1ccccc1)C(=O)N[C@@H](C)C(=O)N[C@@H](CCCN=C(N)N)C(=O)N[C@@H](CCCN=C(N)N)C(N)=O)[C@@H](C)CC [IARRALKKAKRAAHKIPAAKKFARR] gave an MIC [1] of 8 µM (≈ 22.9 µg/mL), an MIC [28] of 4 µM (≈ 11.4 µg/mL) and an MIC [29] of 2 µM (≈ 5.71 µg/mL).

CC[C@H](C)[C@H](N)C(=O)N[C@@H](C)C(=O)N[C@@H](CCCN=C(N)N)C(=O)N[C@@H](CCCN=C(N)N)C(=O)N[C@@H](C)C(=O)N[C@@H](CC(C)C)C(=O)N[C@@H](CCCCN)C(=O)N[C@@H](CCCCN)C(=O)N[C@@H](C)C(=O)N[C@@H](CCCCN)C(=O)N[C@@H](CCCN=C(N)N)C(=O)N[C@@H](C)C(=O)N[C@@H](C)C(=O)N[C@@H](Cc1cnc[nH]1)C(=O)N[C@@H](CCCCN)C(=O)N[C@H](C(=O)N1CCC[C@H]1C(=O)N[C@@H](CCC(N)=O)C(=O)N[C@@H](CS)C(=O)N[C@@H](CCCCN)C(=O)N[C@@H](CCCCN)C(=O)N[C@@H](Cc1ccccc1)C(=O)NCC(=O)N[C@@H](CCCN=C(N)N)C(=O)N[C@@H](CCCN=C(N)N)C(N)=O)[C@@H](C)CC [IARRALKKAKRAAHKIPQCKKFGRR] showed an MIC [1] of 2 µM (≈ 5.86 µg/mL), an MIC [28] of at least 32 µM and an MIC [29] of 8 µM (≈ 23.5 µg/mL).

CC[C@H](C)[C@H](N)C(=O)N[C@@H](CS)C(=O)N[C@@H](CCCN=C(N)N)C(=O)N[C@@H](CCCCN)C(=O)N1CCC[C@H]1C(=O)N[C@H](C(=O)N[C@H](C(=O)N[C@@H](CS)C(=O)N[C@@H](CCCN=C(N)N)C(=O)N[C@@H](CCCCN)C(=O)N1CCC[C@H]1C(=O)N[C@H](C(N)=O)[C@@H](C)CC)[C@@H](C)CC)[C@@H](C)CC [ICRKPIICRKPI] showed an MIC (Streptococcus agalactiae) of at least 64 µM, an MIC [2] of over 64 µM and an MIC [30] of over 64 µM. It also gave an MIC (Staphylococcus aureus) of over 64 µM, an MIC [3] of at least 64 µM and an MIC [31] of at least 64 µM. The MIC [17] was 64 µM (≈ 92.1 µg/mL), the MIC [4] was over 64 µM and the MIC [32] was at least 64 µM. It also gave an MIC (Escherichia coli UB1005) of at least 64 µM, an MIC [33] of over 64 µM and an MIC [6] of over 64 µM.

In the case of CC[C@H](C)[C@H](NC(=O)[C@H](CC(C)C)NC(=O)[C@H](CCCCN)NC(=O)[C@@H](NC(=O)[C@H](C)NC(=O)[C@H](CCC(=O)O)NC(=O)[C@H](Cc1cnc[nH]1)NC(=O)[C@@H](NC(=O)CNC(=O)[C@H](CCC(N)=O)NC(=O)[C@H](Cc1ccccc1)NC(=O)[C@@H](NC(=O)[C@H](CCCCN)NC(=O)[C@H](CCCCN)NC(=O)[C@H](CC(C)C)NC(=O)[C@H](C)NC(=O)[C@H](CC(N)=O)NC(=O)[C@@H](N)CC(C)C)C(C)C)[C@@H](C)CC)[C@@H](C)CC)C(N)=O [LNALKKVFQGIHEAIKLI], the MIC [10] is reported as 8 µM (≈ 16.3 µg/mL), the MIC [11] is reported as 16 µM (≈ 32.6 µg/mL) and the MIC [12] is reported as 8 µM (≈ 16.3 µg/mL). The MIC [1] was 4 µM (≈ 8.14 µg/mL), the MIC [13] was 16 µM (≈ 32.6 µg/mL) and the MIC [14] was 4 µM (≈ 8.14 µg/mL). For the same compound, the MIC [15] was 4 µM (≈ 8.14 µg/mL), the MIC [16] was 8 µM (≈ 16.3 µg/mL) and the MIC [17] was 4 µM (≈ 8.14 µg/mL). It also gave an MIC [18] of 4 µM (≈ 8.14 µg/mL), an MIC [19] of 8 µM (≈ 16.3 µg/mL) and an MIC [20] of 8 µM (≈ 16.3 µg/mL). The MIC [9] was 8 µM (≈ 16.3 µg/mL) and the MIC [21] was 4 µM (≈ 8.14 µg/mL).
